# Values quoted from earlier work in article PMC10674484, “A Spectroscopic and Molecular Dynamics Study on the Aggregation Properties of a Lipopeptide Analogue of Liraglutide, a Therapeutic Peptide against Diabetes Type 2” (Molecules, 2023).
# Read-outs that look alike come from different tables or passages of the source.
# Assays:
# albumin = system: albumin
# Description: (§1) From this point of view, it is interesting to compare the aggregation properties and binding affinity to serum proteins of Liraglutide, a once daily administration drug, and Semaglutide, a one weekly administration drug.
# [1] = Description: Liraglutide (LG), a lipidated glucagon-like peptide 1 derivative, more than a decade ago became a once daily leading drug in the therapy of diabetes and obesity. However, despite its prominent role in the market, LG pharmacokinetics is still under scrutiny. Former studies have shown that LG complexation with human serum albumin (HSA) is one of the factors affecting LG circulation time and catabolism. Moreover, it has been shown that the relatively large size of HSA protects LG against proteolytic degradation or rapid renal filtration, resulting in a long half-life in human ...
# [2] = remark: listed apart in the source
# Description: as §1
"half-life ([1]; humans, subcutaneous administration) [h]",number of LP units per aggregate ([1]; pH 6.4),number of LP units per aggregate ([1]; pH 8),cac compared with Semaglutide [2],Substance,affinity for albumin compared with Liraglutide (albumin)
–,–,–,–,Semaglutide,markedly higher
11 to 15,twelve,eight,lower than the latter,Liraglutide,–
